Laboratory results as given in US9695155B2, “Herbicidal substituted pyrimidinyloxy benzene compounds” (E. I. DU PONT DE NEMOURS AND COMPANY, priority 2013, dated 2017).

Experiments:
wild poinsettia = test: Test E postemergence; format: in vivo, Euphorbia heterophylla; settings: Euphorbia heterophylla, post-emergence, read-out: Plant response rating, Poinsettia, Wild
Summary of the method: (§1)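 Compound in a non-phytotoxic solvent mixture with surfactant was applied preemergence to seeds in silt loam soil, or postemergence to plants 2 to 18 cm tall grown in peat-based potting medium. Plants were kept in a greenhouse for 14 to 21 days, then rated visually against untreated controls on a 0 (no effect) to 100 (complete control) scale.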

goosegrass = test: Test E preemergence; format: in vivo, Eleusine indica; settings: for Goosegrass plant response rating: scale 0 to 100 (0 no effect, 100 complete control); for Plant response rating, Goosegrass: scale 0 to 100, 0 no effect, 100 complete control
Summary of the method: as §1

dayflower [1] = test: Test E postemergence; format: in vivo, Commelina virginica; settings: Commelina virginica, post-emergence, read-out: Plant response rating, Dayflower, VA
Summary of the method: as §1

hairy beggarticks = test: Test E postemergence; format: in vivo, Bidens pilosa; settings: Bidens pilosa, post-emergence, read-out: Plant response rating, Beggarticks
Summary of the method: as §1

field bindweed [2] = test: Test E postemergence; format: in vivo, Convolvulus arvensis; settings: Convolvulus arvensis, post-emergence, read-out: Plant response rating, Field Bindweed
Summary of the method: as §1

palmer pigweed = test: Test E preemergence; format: in vivo, Amaranthus palmeri; settings: for Pigweed, Palmer plant response rating: scale 0 to 100 (0 no effect, 100 complete control); for Plant response rating, Pigweed, Palmer: scale 0 to 100, 0 no effect, 100 complete control
Summary of the method: as §1

ragweed = test: Test E preemergence; format: in vivo, Ambrosia elatior; settings: for Ragweed plant response rating: scale 0 to 100 (0 no effect, 100 complete control); for Plant response rating, Ragweed: scale 0 to 100, 0 no effect, 100 complete control
Summary of the method: as §1

barnyardgrass = test: Test E preemergence; format: in vivo, Echinochloa crus-galli; settings: for Barnyardgrass plant response rating: scale 0 to 100 (0 no effect, 100 complete control); for Plant response rating, Barnyardgrass: scale 0 to 100, 0 no effect, 100 complete control
Summary of the method: as §1

arrowleaf sida [3] = test: Test E postemergence; format: in vivo, Sida rhombifolia; settings: Sida rhombifolia, post-emergence, read-out: Plant response rating, Arrowleaf Sida
Summary of the method: as §1

fall panicum = test: Test E preemergence; format: in vivo, Panicum dichotomiflorum; settings: for Panicum, Fall plant response rating: scale 0 to 100 (0 no effect, 100 complete control); for Plant response rating, Panicum, Fall: scale 0 to 100, 0 no effect, 100 complete control
Summary of the method: as §1

field bindweed [4] = test: Test E preemergence; format: in vivo, Convolvulus arvensis; settings: for Field Bindweed plant response rating: scale 0 to 100 (0 no effect, 100 complete control); for Plant response rating, Field Bindweed: scale 0 to 100, 0 no effect, 100 complete control
Summary of the method: as §1

morningglory = test: Test E preemergence; format: in vivo, Ipomoea coccinea; settings: for Morningglory plant response rating: scale 0 to 100 (0 no effect, 100 complete control); for Plant response rating, Morningglory: scale 0 to 100, 0 no effect, 100 complete control
Summary of the method: as §1

dayflower [5] = test: Test E preemergence; format: in vivo, Commelina virginica; settings: for Dayflower, VA plant response rating: scale 0 to 100 (0 no effect, 100 complete control); for Plant response rating, Dayflower, VA: scale 0 to 100, 0 no effect, 100 complete control
Summary of the method: as §1

Italian ryegrass = test: Test E postemergence; format: in vivo, Lolium multiflorum; settings: Lolium multiflorum, post-emergence, read-out: Plant response rating, Ryegrass, Italian
Summary of the method: as §1

soybean = test: Test E postemergence; format: in vivo, Glycine max; settings: Glycine max, post-emergence
Summary of the method: as §1

arrowleaf sida [6] = test: Test E preemergence; format: in vivo, Sida rhombifolia; settings: for Arrowleaf Sida plant response rating: scale 0 to 100 (0 no effect, 100 complete control); for Plant response rating, Arrowleaf Sida: scale 0 to 100, 0 no effect, 100 complete control
Summary of the method: as §1

large (Lg) crabgrass = test: Test E preemergence; format: in vivo, Digitaria sanguinalis; settings: for Crabgrass, Large plant response rating: scale 0 to 100 (0 no effect, 100 complete control); for Plant response rating, Crabgrass, Large: scale 0 to 100, 0 no effect, 100 complete control
Summary of the method: as §1

[7] = Postemergence, 31 g ai/ha, scale 0 to 100
[8] = Postemergence, 62 g ai/ha, scale 0 to 100
[9] = Postemergence, 125 g ai/ha, scale 0 to 100
[10] = postemergence, 16 g ai/ha, scale 0 to 100, 0 no effect, 100 complete control

N#Cc1cccc(Oc2ncc(Cl)cn2)c1-n1cc(Br)cn1 [Compound 52, 2-(4-bromo-1H-pyrazol-1-yl)-3-[(5-chloro-2-pyrimidinyl)oxy]benzonitrile]
pest or weed control at 31 g/ha (wild poinsettia; [7]): 40%
pest or weed control at 62 g/ha (wild poinsettia; [8]): 50%
pest or weed control at 125 g/ha (wild poinsettia; [9]): 70%
pest or weed control at 16 g/ha (wild poinsettia; [10]): 45%
Goosegrass plant response rating (goosegrass; 16 g ai/ha): 5
Goosegrass plant response rating (goosegrass; 31 g ai/ha): 50
Goosegrass plant response rating (goosegrass; 62 g ai/ha): 65
Plant response rating, Goosegrass (goosegrass; 125 g ai/ha): 98
Plant response rating, Goosegrass (goosegrass; 250 g ai/ha): 100
pest or weed control at 31 g/ha (dayflower [1]; [7]): 40%
pest or weed control at 62 g/ha (dayflower [1]; [8]): 50%
pest or weed control at 125 g/ha (dayflower [1]; [9]): 60%
pest or weed control at 16 g/ha (dayflower [1]; [10]): 30%
pest or weed control at 31 g/ha (hairy beggarticks; [7]): 60%
pest or weed control at 62 g/ha (hairy beggarticks; [8]): 70%
pest or weed control at 125 g/ha (hairy beggarticks; [9]): 75%
pest or weed control at 16 g/ha (hairy beggarticks; [10]): 30%
pest or weed control at 31 g/ha (field bindweed [2]; [7]): 50%
pest or weed control at 62 g/ha (field bindweed [2]; [8]): 65%
pest or weed control at 125 g/ha (field bindweed [2]; [9]): 65%
pest or weed control at 16 g/ha (field bindweed [2]; [10]): 50%
Pigweed, Palmer plant response rating (palmer pigweed; 16 g ai/ha): 25
Pigweed, Palmer plant response rating (palmer pigweed; 31 g ai/ha): 100
Pigweed, Palmer plant response rating (palmer pigweed; 62 g ai/ha): 100
Plant response rating, Pigweed, Palmer (palmer pigweed; 125 g ai/ha): 100
Plant response rating, Pigweed, Palmer (palmer pigweed; 250 g ai/ha): 100
Ragweed plant response rating (ragweed; 16 g ai/ha): 0
Ragweed plant response rating (ragweed; 31 g ai/ha): 0
Ragweed plant response rating (ragweed; 62 g ai/ha): 0
Plant response rating, Ragweed (ragweed; 125 g ai/ha): 5
Plant response rating, Ragweed (ragweed; 250 g ai/ha): 70
Barnyardgrass plant response rating (barnyardgrass; 16 g ai/ha, preemergence): 0
Barnyardgrass plant response rating (barnyardgrass; 31 g ai/ha, preemergence): 0
Plant response rating, Barnyardgrass (barnyardgrass; Preemergence, 62 g ai/ha): 30
Plant response rating, Barnyardgrass (barnyardgrass; preemergence, 125 g ai/ha): 75
Plant response rating, Barnyardgrass (barnyardgrass; preemergence, 250 g ai/ha): 98
pest or weed control at 31 g/ha (arrowleaf sida [3]; [7]): 60%
pest or weed control at 62 g/ha (arrowleaf sida [3]; [8]): 70%
pest or weed control at 125 g/ha (arrowleaf sida [3]; [9]): 70%
pest or weed control at 16 g/ha (arrowleaf sida [3]; [10]): 50%
Panicum, Fall plant response rating (fall panicum; 16 g ai/ha): 0
Panicum, Fall plant response rating (fall panicum; 31 g ai/ha): 0
Panicum, Fall plant response rating (fall panicum; 62 g ai/ha): 100
Plant response rating, Panicum, Fall (fall panicum; 125 g ai/ha): 100
Plant response rating, Panicum, Fall (fall panicum; 250 g ai/ha): 100
Field Bindweed plant response rating (field bindweed [4]; 16 g ai/ha): 0
Field Bindweed plant response rating (field bindweed [4]; 31 g ai/ha): 0
Field Bindweed plant response rating (field bindweed [4]; 62 g ai/ha): 25
Plant response rating, Field Bindweed (field bindweed [4]; 125 g ai/ha): 80
Plant response rating, Field Bindweed (field bindweed [4]; 250 g ai/ha): 95
Morningglory plant response rating (morningglory; 16 g ai/ha): 0
Morningglory plant response rating (morningglory; 31 g ai/ha): 5
Morningglory plant response rating (morningglory; 62 g ai/ha): 35
Plant response rating, Morningglory (morningglory; 125 g ai/ha): 95
Plant response rating, Morningglory (morningglory; 250 g ai/ha): 98
Dayflower, VA plant response rating (dayflower [5]; 16 g ai/ha): 0
Dayflower, VA plant response rating (dayflower [5]; 31 g ai/ha): 0
Dayflower, VA plant response rating (dayflower [5]; 62 g ai/ha): 5
Plant response rating, Dayflower, VA (dayflower [5]; 125 g ai/ha): 70
Plant response rating, Dayflower, VA (dayflower [5]; 250 g ai/ha): 98
pest or weed control at 31 g/ha (Italian ryegrass; [7]): 0%
pest or weed control at 62 g/ha (Italian ryegrass; [8]): 0%
pest or weed control at 125 g/ha (Italian ryegrass; [9]): 10%
pest or weed control at 16 g/ha (Italian ryegrass; [10]): 0%
plant response (crop injury) rating, soybean, 0-100 scale at 31 g/ha (soybean; [7]): 75%
plant response (crop injury) rating, soybean, 0-100 scale at 62 g/ha (soybean; [8]): 90%
plant response (crop injury) rating, soybean, 0-100 scale at 125 g/ha (soybean; [9]): 95%
plant response (crop injury) rating, soybean, 0-100 scale at 16 g/ha (soybean; [10]): 70%
Arrowleaf Sida plant response rating (arrowleaf sida [6]; 16 g ai/ha, preemergence): 35
Arrowleaf Sida plant response rating (arrowleaf sida [6]; 31 g ai/ha, preemergence): 40
Plant response rating, Arrowleaf Sida (arrowleaf sida [6]; Preemergence, 62 g ai/ha): 60
Plant response rating, Arrowleaf Sida (arrowleaf sida [6]; preemergence, 125 g ai/ha): 80
Plant response rating, Arrowleaf Sida (arrowleaf sida [6]; preemergence, 250 g ai/ha): 100
Crabgrass, Large plant response rating (large (Lg) crabgrass; 16 g ai/ha): 0
Crabgrass, Large plant response rating (large (Lg) crabgrass; 31 g ai/ha): 35
Crabgrass, Large plant response rating (large (Lg) crabgrass; 62 g ai/ha): 98
Plant response rating, Crabgrass, Large (large (Lg) crabgrass; 125 g ai/ha): 100
Plant response rating, Crabgrass, Large (large (Lg) crabgrass; 250 g ai/ha): 100
